The values that follow are results of earlier work, collected in patent US20250000936A1, “TREATMENT OF GEOGRAPHIC ATROPHY” (Apellis Pharmaceuticals, Inc., priority 2021, published 2025).

The subject of the data set is complement activation. The following applies: complement inhibiting activity relative to C-terminally amidated compstatin; cited from earlier work.
For “Ac-ICV(1-Nal)QDWGAHRCT-COOH (N-acetyl, 1-Nal) [Ac V4(1-Nal)/H9A-OH]”, the Activity over compstatin was 30xmore.

Consider “Ac-ICV(2-Igl)QDWGAHRCT-CONH2 (N-acetyl, C-amide, 2-Igl) [Ac-V42Igl/H9A]”, for which the Activity over compstatin is listed as 39xmore.

Regarding “Ac-ICV(2-Igl)QDWGAHRCT-COOH (N-acetyl, 2-Igl) [Ac-V42Igl/H9A-OH]”, the Activity over compstatin is 37xmore.

Turning to “Ac-ICV(2-Nal)QDWGAHRCT-CONH2 (N-acetyl, C-amide, 2-Nal) [Ac-V4(2-Nal)/H9A]”, the Activity over compstatin is listed as 99xmore.

Consider “Ac-ICV(2-Nal)QDWGAHRCT-COOH (N-acetyl, 2-Nal) [Ac V4(2-Nal)/H9A-OH]”, for which the Activity over compstatin was 38xmore.

Regarding “Ac-ICV(Bpa)QDWGAHRCT-CONH2 (N-acetyl, C-amide, Bpa) [Ac-V4(Bpa)/H9A]”, the Activity over compstatin is on record as 86xmore.

With “Ac-ICV(Bpa)QDWGAHRCT-COOH (N-acetyl, Bpa) [Ac-V4(Bpa)/H9A-OH]”, the Activity over compstatin is given as 49xmore.

On to “Ac-ICVDhtQDWGAHRCT-COOH [Ac-V4Dht/H9A-OH]”, for which the Activity over compstatin was 5xmore.

With Ac-ICVVQDWGHHRCT-CONH2 [Ac-compstatin], the Activity over compstatin is reported as 3xmore.

Take “Ac-ICVWQD(5fW)GAHRCT-CONH2 [Ac-V4W/W7(5fW)/H9A]”: the Activity over compstatin is 121xmore.

“Ac-ICVWQDWGAHRCT-CONH2 (Ac-ICVWQDWGAHRCT-NH2; cysteine pairing not given here) [Ac-V4W/H9A]”: the Activity over compstatin was 45xmore.

Regarding “Ac-ICVWQDWGAHRCdT-COOH [Ac-V4W/H9A/T13dT-OH]”, the Activity over compstatin was 55xmore.

Ac-ICVYQDWGAHRCT-CONH2 [Ac-V4Y/H9A]: the Activity over compstatin is on record as 14xmore.

Turning to “H-GICV(6fW)QD(6fW)GAHRCTN-COOH (6-fluoro-Trp residues) [+G/V4(6fW)/W7(6fW)H9A+N-OH]”, the Activity over compstatin was 126xmore.
